Measurements reported in article PMC12711630 (Cell Reports. Physical Science, 2025).
Several values for one entry are separate records, joined by “and”; a condition that tells them apart may be missing. Identical values can stand only once. Like-named read-outs stand apart in the source and are kept apart here. Marks after values point to notes of the source that are not given here.

Legend:
[1] = biological target: T1, (α4)2(β2)3 (HS isoform) α4β2 nAChR WT (Homo sapiens, UniProt P17787+P43681); experiment: Two-electrode voltage clamp, Xenopus oocytes expressing HS α4β2 nAChR, wild type; format: cell-based; conditions: for EC50: varenicline variants series
T1 construct: expressed in transfected cells; host or cells: Xenopus laevis oocytes, nuclear injection of cDNA in plasmid pCI (10 α4 : 1 β2 for LS, 1 α4 : 10 β2 for HS)

[2] = biological target: T2, (α4)3(β2)2 (LS isoform) α4β2 nAChR WT (Homo sapiens, UniProt P17787+P43681); experiment: Two-electrode voltage clamp, Xenopus oocytes expressing LS α4β2 nAChR, wild type; format: cell-based
T2 construct: expressed in transfected cells; host or cells: Xenopus laevis oocytes, nuclear injection of cDNA in plasmid pCI (10 α4 : 1 β2 for LS, 1 α4 : 10 β2 for HS)

human α4β2 nAChR = biological target: T3, human α4β2 nAChR (Homo sapiens, UniProt P17787+P43681); experiment: [3H]epibatidine radioligand binding (saturation and competition), membranes of transfected HEK 293 cells
T3 construct: expressed in transfected cells; host or cells: HEK 293 cells, transient transfection with JetPEI, membranes

human α3β4 nAChR = biological target: T4, human α3β4 nAChR (Homo sapiens, UniProt P30926+P32297); experiment: as above
T4 construct: expressed in transfected cells; host or cells: HEK 293 cells, transient transfection with JetPEI, membranes

human α7 nAChR = biological target: T5, human α7 nAChR (Homo sapiens, UniProt P36544); experiment: [125I]α-Bgtx radioligand binding (saturation and competition), membranes of transfected SH-SY5Y cells; conditions: competition with [125I]α-Bgtx 2-3 nM, Cheng-Prusoff
T5 construct: expressed in transfected cells; host or cells: SH-SY5Y cells, transient transfection with JetPEI, membranes

[3] = biological target: T6, (α4)2(β2)3 (HS isoform) α4β2 nAChR (Homo sapiens, UniProt P17787+P43681); experiment: Inhibition of ACh EC80 current responses, Xenopus oocytes, HS isoform; format: cell-based
T6 construct: expressed in transfected cells; host or cells: Xenopus laevis oocytes, nuclear injection of cDNA in plasmid pCI (10 α4 : 1 β2 for LS, 1 α4 : 10 β2 for HS)

[4] = biological target: T7, (α4)3(β2)2 (LS isoform) α4β2 nAChR (Homo sapiens, UniProt P17787+P43681); experiment: Inhibition of ACh EC80 current responses, Xenopus oocytes, LS isoform; format: cell-based
T7 construct: expressed in transfected cells; host or cells: Xenopus laevis oocytes, nuclear injection of cDNA in plasmid pCI (10 α4 : 1 β2 for LS, 1 α4 : 10 β2 for HS)

5-HT3A receptor [5] = biological target: T8, 5-HT3A receptor (Homo sapiens, UniProt P46098); experiment: Inhibition of [3H]GR65630 binding, transfected HEK293 cell membranes; conditions: for IC50: n=3
T8 sequence (P46098 24-478): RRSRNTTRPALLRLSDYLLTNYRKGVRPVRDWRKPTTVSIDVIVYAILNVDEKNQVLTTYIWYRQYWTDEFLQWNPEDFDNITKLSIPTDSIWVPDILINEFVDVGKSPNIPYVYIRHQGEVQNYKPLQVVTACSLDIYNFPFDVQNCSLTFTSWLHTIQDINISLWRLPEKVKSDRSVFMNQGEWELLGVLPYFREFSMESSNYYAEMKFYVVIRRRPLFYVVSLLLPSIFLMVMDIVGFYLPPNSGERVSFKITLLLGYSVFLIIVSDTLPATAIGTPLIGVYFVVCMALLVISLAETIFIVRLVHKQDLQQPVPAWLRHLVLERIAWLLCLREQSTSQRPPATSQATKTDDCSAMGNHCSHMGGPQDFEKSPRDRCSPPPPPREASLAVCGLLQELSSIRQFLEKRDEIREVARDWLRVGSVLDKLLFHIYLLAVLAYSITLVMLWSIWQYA

5-HT3A receptor [6] = biological target: T8, 5-HT3A receptor; experiment: FlexStation fluorescent membrane-potential dye assay, transfected HEK 293 cells; format: cell-based; conditions: for functional response at 5-HT3A receptors: concentrations up to 30 µM; for EC50: n=4
[7] = Spectrophotometric titration pKa determination; conditions: for protonated fraction of ammonium center: at pH 7.5
α4β2 = conditions: read-out: affinity at α4β2; cited from earlier work
[8] = biological target: T9, (α4)3(β2)2 (LS isoform) α4β2 nAChR α4T139V (Homo sapiens, UniProt P17787+P43681, T139V); experiment: Two-electrode voltage clamp, Xenopus oocytes, LS α4β2 nAChR α4T139V; format: cell-based
T9 construct: expressed in transfected cells; host or cells: Xenopus laevis oocytes, nuclear injection of cDNA in plasmid pCI

[9] = cited from earlier work
[10] = biological target: T10, (α4)2(β2)3 (HS isoform) α4β2 nAChR β2S133V (Homo sapiens, UniProt P17787+P43681, S133V); experiment: Two-electrode voltage clamp, Xenopus oocytes, HS α4β2 nAChR β2S133V; format: cell-based
T10 construct: expressed in transfected cells; host or cells: Xenopus laevis oocytes, nuclear injection of cDNA in plasmid pCI

[11] = biological target: T11, (α4)2(β2)3 (HS isoform) α4β2 nAChR α4T183V (Homo sapiens, UniProt P17787+P43681, T183V); experiment: Two-electrode voltage clamp, Xenopus oocytes, HS α4β2 nAChR α4T183V; format: cell-based
T11 construct: expressed in transfected cells; host or cells: Xenopus laevis oocytes, nuclear injection of cDNA in plasmid pCI

[12] = biological target: T12, (α4)2(β2)3 (HS isoform) α4β2 nAChR α4T139V (Homo sapiens, UniProt P17787+P43681, T139V); experiment: Two-electrode voltage clamp, Xenopus oocytes, HS α4β2 nAChR α4T139V; format: cell-based
T12 construct: expressed in transfected cells; host or cells: Xenopus laevis oocytes, nuclear injection of cDNA in plasmid pCI

[13] = biological target: T13, (α4)2(β2)3 (HS isoform) α4β2 nAChR β2S133Vα4T183V (Homo sapiens, UniProt P17787+P43681, S133V/T183V); experiment: Two-electrode voltage clamp, Xenopus oocytes, HS α4β2 nAChR β2S133Vα4T183V; format: cell-based
T13 construct: expressed in transfected cells; host or cells: Xenopus laevis oocytes, nuclear injection of cDNA in plasmid pCI

[14] = biological target: T14, (α4)2(β2)3 (HS isoform) α4β2 nAChR β2S133Vα4T139V (Homo sapiens, UniProt P17787+P43681, S133V/T139V); experiment: Two-electrode voltage clamp, Xenopus oocytes, HS α4β2 nAChR β2S133Vα4T139V; format: cell-based
T14 construct: expressed in transfected cells; host or cells: Xenopus laevis oocytes, nuclear injection of cDNA in plasmid pCI

[15] = biological target: T15, (α4)3(β2)2 (LS isoform) α4β2 nAChR β2S133V (Homo sapiens, UniProt P17787+P43681, S133V); experiment: Two-electrode voltage clamp, Xenopus oocytes, LS α4β2 nAChR β2S133V; format: cell-based
T15 construct: expressed in transfected cells; host or cells: Xenopus laevis oocytes, nuclear injection of cDNA in plasmid pCI

[16] = biological target: T16, (α4)3(β2)2 (LS isoform) α4β2 nAChR α4T183V (Homo sapiens, UniProt P17787+P43681, T183V); experiment: Two-electrode voltage clamp, Xenopus oocytes, LS α4β2 nAChR α4T183V; format: cell-based
T16 construct: expressed in transfected cells; host or cells: Xenopus laevis oocytes, nuclear injection of cDNA in plasmid pCI

[17] = biological target: T17, (α4)3(β2)2 (LS isoform) α4β2 nAChR β2S133Vα4T183V (Homo sapiens, UniProt P17787+P43681, S133V/T183V); experiment: Two-electrode voltage clamp, Xenopus oocytes, LS α4β2 nAChR β2S133Vα4T183V; format: cell-based
T17 construct: expressed in transfected cells; host or cells: Xenopus laevis oocytes, nuclear injection of cDNA in plasmid pCI

[18] = biological target: T18, (α4)3(β2)2 (LS isoform) α4β2 nAChR β2S133Vα4T139V (Homo sapiens, UniProt P17787+P43681, S133V/T139V); experiment: Two-electrode voltage clamp, Xenopus oocytes, LS α4β2 nAChR β2S133Vα4T139V; format: cell-based
T18 construct: expressed in transfected cells; host or cells: Xenopus laevis oocytes, nuclear injection of cDNA in plasmid pCI

[19] = system: human 5-HT3 serotonin receptor; conditions: cited from earlier work
[20] = co-applied with ACh EC80 300 µM
[21] = mean + SEM, read-out: pIC50, inhibition of [3H]GR65630 binding (converted)
[22] = [3H]GR65630 0.3 nM, read-out: IC50, inhibition of [3H]GR65630 binding

c1ccc2cc3c(cc2c1)C1CNCC3C1 [C2 varenicline 4]
RE [1]: 0.022 ± 0.0033 ^a
fold increase in EC50 vs varenicline 1 [1]: 10 fold
fold reduction of efficacy vs varenicline 1 [1]: 6 fold
EC50 ([1]; Table 3, HS (α4)2(β2)3): 2.64 ± 0.8 µM
RE [2]: 0.102 ± 0.012 ^a
fold increase in EC50 vs varenicline 1 [2]: 10 fold
fold reduction of efficacy vs varenicline 1 [2]: 4 fold
EC50 ([2]; Table 3, LS (α4)3(β2)2, varenicline variants series, read-out: EC50): 11.5 ± 1.74 µM
Ki (human α4β2 nAChR): 0.0143 ± 0.0016 µM
fold decrease in affinity compared to varenicline 1 (human α4β2 nAChR): approximately 30 fold
Ki ratio α3β4/α4β2 (human α3β4 nAChR): 18.7
Ki (human α3β4 nAChR; competition with [3H]epibatidine 0.25 nM, Cheng-Prusoff): 0.267 ± 0.073 µM
Ki (human α7 nAChR): 1.32 µM
IC50 [3]: 11 ± 1.2 µM
IC50 [4, 20]: 33 ± 14 µM
fold increase of IC50 against [3H]GR65630 compared to varenicline 1 (5-HT3A receptor [5]): 44 fold
IC50 (5-HT3A receptor [5]; [21]): 13.6 µM
functional response at 5-HT3A receptors (5-HT3A receptor [6]): No signiﬁcant responses
pKa (physchem): 9.63 ± 0.08
protonated fraction of ammonium center [7]: ≥ 90%

c1ccc2c(c1)C1CNCC2C1 [benzo variant, 2,3,4,5-tetrahydro-1H-1,5-methanobenzo[d]azepine]
Ki (α4β2): 0.02 µM

c1ccc2nc3c(nc2c1)C1CNCC3C1 [Isovarenicline 5]
RE [1]: 0.0071 ± 0.00086 ^a
fold reduction of efficacy vs varenicline 1 [1]: 20 fold
EC50 ([1]; Table 3, HS (α4)2(β2)3): 13.3 ± 2.5 µM
RE [2]: 0.054 ± 0.013 ^a
fold reduction of efficacy vs varenicline 1 [2]: 7 fold
EC50 ([2]; read-out: EC50): 26 ± 8.5 µM
Ki (human α4β2 nAChR; read-out: Ki α4β2): 5.46 µM
Ki (human α3β4 nAChR): 67.7 µM
Ki ratio α3β4/α4β2 (human α3β4 nAChR): 12
Ki (human α7 nAChR): 127 µM
IC50 [3]: 70 ± 12 µM
IC50 [4]: 142 ± 21 µM
fold increase of IC50 against [3H]GR65630 compared to varenicline 1 (5-HT3A receptor [5]): 165 fold
IC50 (5-HT3A receptor [5]; [22]): 49.6 µM
functional response at 5-HT3A receptors (5-HT3A receptor [6]): No signiﬁcant responses
pKa (physchem): 8.44 ± 0.09
protonated fraction of ammonium center [7]: ≥ 90%

c1cnc2nc3c(nc2n1)C1CNCC3C1 [N2 varenicline 6]
RE [1]: 0.0010 ± 0.0001 ^a
RE [2]: 0.0032 ± 0.0023 ^a
IC50 ([3]; co-applied with ACh EC80 30 µM): > 1000 µM
IC50 [4, 20]: > 1000 µM
fold increase of IC50 against [3H]GR65630 compared to varenicline 1 (5-HT3A receptor [5]): 250 fold
IC50 (5-HT3A receptor [5]; [22]): 75.8 µM
functional response at 5-HT3A receptors (5-HT3A receptor [6]): No signiﬁcant responses
pKa (physchem): 7.31 ± 0.05

c1cnc2cc3c(cc2n1)[C@@H]1CNC[C@H]3C1 [Varenicline 1, varenicline, reference compound]
RE ([1]; Table 3, HS (α4)2(β2)3, relative to maximal ACh response): 0.14 ± 0.012
RE ([2]; Table 3, LS (α4)3(β2)2, relative to maximal ACh response): 0.38 ± 0.025
reduction of RE vs WT [8]: 50%
IC50 (5-HT3A receptor [5]; [21]): 0.304 µM
EC50 (5-HT3A receptor [6]; EC50, activation of 5-HT3A receptors, membrane-potential sensitive dye): 0.4 µM
EC50 (5-HT3A receptor [6]; pEC50, activation of 5-HT3A receptors, mean + SEM): 0.437 µM
pKa, literature value ([9]; ref Pfizer[80]): 9.2
pKa, literature value ([9]; ref Rollema et al.[81]): 9.3
pKa, literature value ([9]; ref Unal et al.[82]): 9.22 ± 0.13
pKa [7]: 8.9 ± 0.1

O=c1cccc2n1C[C@@H]1CNC[C@H]2C1 [Cytisine 3, cytisine]
RE (relative efficacy, I/ImaxACh) [1]: 0.025 and 0.025 ± 0.004
RE (relative efficacy, I/ImaxACh) [10]: 0.016 ± 0.002
RE (relative efficacy, I/ImaxACh) [11]: 0.021 ± 0.003
RE (relative efficacy, I/ImaxACh) [12]: 0.023 ± 0.001
RE (relative efficacy, I/ImaxACh) [13]: 0.018 ± 0.003
RE (relative efficacy, I/ImaxACh) [14]: 0.022 ± 0.009
EC50 [2]: 2.9 ± 0.8 µM
RE (relative efficacy, I/ImaxACh) [2]: 0.23 and 0.23 ± 0.08
EC50 [15]: 5.1 ± 1 µM
RE (relative efficacy, I/ImaxACh) [15]: 0.21 ± 0.01
EC50 [16]: 4.6 ± 1 µM
RE (relative efficacy, I/ImaxACh) [16]: 0.22 ± 0.02
EC50 [8]: 2.5 ± 0.7 µM
RE (relative efficacy, I/ImaxACh) [8]: 0.19 ± 0.02
EC50 [17]: 6.9 ± 1.5 µM
RE (relative efficacy, I/ImaxACh) [17]: 0.19 ± 0.01
EC50 [18]: 5.8 ± 1.4 µM
RE (relative efficacy, I/ImaxACh) [18]: 0.18 ± 0.01
fold less potent than varenicline 1 [19]: 2,000 fold
pKa (physchem; pKa value): 8.07
